{"source": "patent US20250382322A1", "about": "“DIAGNOSTICS FOR DETECTING ECTO-5'-NUCLEOTIDASE (CD73)” (EBERHARD KARLS UNIVERSITÄT TÜBINGEN, priority 2022, published 2025)", "target": "T1, native membrane-anchored human CD73 (in MDA-MB-231 cell membrane preparations) (Homo sapiens, UniProt P21589)", "T1 construct": "membrane preparations of MDA-MB-231 cells; endogenous in cells; host or cells: MDA-MB-231 cell membrane preparations", "T1 sequence (P21589 27-549 limits assumed)": "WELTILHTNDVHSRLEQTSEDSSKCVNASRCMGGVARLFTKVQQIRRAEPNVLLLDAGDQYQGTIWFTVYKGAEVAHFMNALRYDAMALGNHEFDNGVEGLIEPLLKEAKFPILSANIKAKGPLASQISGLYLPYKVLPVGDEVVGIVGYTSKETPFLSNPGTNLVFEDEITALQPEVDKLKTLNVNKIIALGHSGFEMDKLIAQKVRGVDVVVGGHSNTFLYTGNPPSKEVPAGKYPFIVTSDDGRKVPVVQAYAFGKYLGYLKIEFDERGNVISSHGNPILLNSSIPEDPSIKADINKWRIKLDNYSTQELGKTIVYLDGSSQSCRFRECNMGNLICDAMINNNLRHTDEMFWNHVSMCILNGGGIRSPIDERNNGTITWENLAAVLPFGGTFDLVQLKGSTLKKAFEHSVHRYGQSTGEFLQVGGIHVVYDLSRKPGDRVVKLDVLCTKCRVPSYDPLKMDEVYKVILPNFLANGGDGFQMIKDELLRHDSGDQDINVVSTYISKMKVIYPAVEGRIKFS", "assay": "CD73 enzyme inhibition assay with [2,8-3H]AMP, MDA-MB-231 membrane preparations", "format": "biochemical", "settings": "[2,8-3H]AMP (5 μM) as substrate, read-out: Human CD73 MDA-MB-231 Ki ± SEM", "method": "Compound 2b, its precursor 1, and 20 were investigated for their CD73-inhibitory potency using tritium-labeled AMP as a substrate.^20 After incubation with CD73, non-hydrolyzed substrate and inorganic phosphate were precipitated using a solution of lanthanum chloride, and the precipitate was separated from the solution containing the reaction product [2,8-^3H]adenosine by filtration through GF/B glass fiber filters (WhatmanTM GE Healthcare, Chicago, IL, USA) using a cell harvester (M-48, Brandel, Gaitherburg, MD, USA). The filtrates (ca. 1.8 mL each) were transferred to scintillation vials, scintillation cocktail ULTIMA Gold XR (PerkinElmer, Waltham, MA, USA) was added (5 mL), and the radioactivity esd quantified by scintillation counting. CD73 preparations were (1) recombinant soluble human CD73,^13 (2) recombinant soluble rat CD73,^21 both expressed in Spodoptera frugiperda 9 (Sf) cells, (3) membrane preparations of MDA-MB-231 cells,^16 a human triple-negative breast cancer cell line with high expression of CD73,^18 and (4) membrane preparations of the 4T1.2 cell line, a mouse CD73-expressing breast cancer cell line.^22 The potency of the compounds was determined by measurements of full concentration-inhibition curves. K values were calcuated from the obtained IC50 values employing the Cheng-Prusoff equation.^23 […]"}
{"molecule": "CCCN(Cc1ccc(-c2cn(CCF)nn2)cc1)c1nc(Cl)nc2c1ncn2[C@@H]1O[C@H](COP(=O)(O)CP(=O)(O)O)C(O)C1O", "note": "(some centres unmarked) [Compound 2]", "values": [{"measurement": "Ki", "result": "2.78 ± 0.47", "unit": "nM"}]}
{"molecule": "O=C(NCCCCCCNC(=O)c1ccc2c(c1)C1(OC2=O)c2ccc(O)cc2Oc2cc(O)ccc21)c1ccc(CNc2nc(Cl)nc3c2ncn3[C@@H]2O[C@H](COP(=O)(O)CP(=O)(O)O)[C@@H](O)[C@H]2O)cc1", "note": "[Compound 20, (((((2R,3S,4R,5R)-5-(2-chloro-6-((4-((6-(3′,6′-dihydroxy-3-oxo-3H-spiro[isobenzofuran-1,9′-xanthene]-6-carboxamido)-hexyl)carbamoyl)benzyl)amino)-9H-purin-9-yl)-3,4-dihydroxytetrahydrofuran-2-yl)methoxy)(hydroxy)phosphoryl)methyl)phosphonic acid]", "values": [{"measurement": "Ki", "result": "6.76 ± 1.25", "unit": "nM"}]}
